# Measured values from EP4786487A1, “PEPTIDE” (Peptidream Inc, priority 2023, dated 2025).
# Read-outs that look alike come from different tables or passages of the source. Starred links: 1 amine or outer side, 2 acyl side, 3 side chain; linkers in the order of their positions; H or OH if unused. Positions of bridges follow the written chain, without caps; N, C: chain ends. Non-standard residues stand in square brackets, D forms with d. Residues, ends and D or L forms follow the SMILES beside them. *: point of attachment. Phe(3-OCH2COOH) = N[C@@H](Cc1cccc(OCC(=O)O)c1)C(=O)O; Piperidine(4-CH2CH2CONH2) = NC(=O)CCC1CCN(*)CC1; Phe(4-COOH) = N[C@@H](Cc1ccc(C(=O)O)cc1)C(=O)O; Piperazinyl(4-CH2COOH) = O=C(O)CN1CCN(*)CC1; Piperidinyl(4-CH2COOH) = O=C(O)CC1CCN(*)CC1; Gly(N(CH2)3COOH) = O=C(O)CCCNCC(=O)O; X1 = CCCCCCC[C@H](N[*:1])C(=O)[*:2]; NMeF = CN[C@@H](Cc1ccccc1)C(=O)O; dAad = N[C@H](CCCC(=O)O)C(=O)O; NMeC = CN[C@@H](CS)C(=O)O; dNMeC = CN[C@H](CS)C(=O)O; NMeA = CN[C@@H](C)C(=O)O; X9 = NC(=O)CC1CCN(*)CC1; Inp = O=C(O)C1CCNCC1
# Tests used:
# [1] = molecular target: T1, Myostatin (Homo sapiens, UniProt O14793); assay: HepG2 reporter gene assay, Evaluation Procedure (2): 2-concentrations assay, myostatin inhibition; type: cell-based; conditions: Table 7-3/7-4, myostatin 10 ng/mL, HepG2, read-out: inhibition rate (myostatin inhibition assay); for inhibition at 0.1 µM: peptide at the higher of the 2 concentrations; for inhibition at 0.03 µM: peptide at the lower of the 2 concentrations
# T1 construct: active myostatin (also called mature myostatin) is a homodimer consisting of two C-terminal growth factor domains; purchased R&D systems 788-G8/CF
# T1 sequence (O14793 267-375): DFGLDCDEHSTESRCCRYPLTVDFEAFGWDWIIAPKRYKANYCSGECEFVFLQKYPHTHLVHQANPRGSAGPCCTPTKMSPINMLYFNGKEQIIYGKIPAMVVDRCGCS
# In short: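 HepG2 cells (HB-8065, ATCC) carrying the transfected pGL3(CAGA)12-luc reporter plasmid were treated with myostatin (788-G8/CF, R&D systems) at a final concentration of 10 ng/mL plus peptide and incubated at 37°C, 5% CO2 for 20 to 24 hours. Luminescence was read after adding PBS mixed 1:1 with One-Glo substrate, and inhibition rate was calculated.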
# [2] = molecular target: T2, GDF-11 (Homo sapiens, UniProt O95390); assay: HepG2 reporter gene assay, Evaluation Procedure (2): 2-concentrations assay, GDF-11 inhibition; type: cell-based; conditions: read-out: inhibition rate (GDF-11 inhibition assay)
# T2 construct: purchased R&D systems 1958-GD-G8/CF
# T2 sequence (O95390 299-407): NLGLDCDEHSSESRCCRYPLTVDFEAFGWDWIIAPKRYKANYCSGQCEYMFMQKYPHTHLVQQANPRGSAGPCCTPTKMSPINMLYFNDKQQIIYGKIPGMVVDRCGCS
# In short: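 HepG2 cells carrying the transfected pGL3(CAGA)12-luc reporter, a pGL3 vector with luciferase placed downstream of 12 CAGA repeats, were stimulated with GDF-11 at a final 10 ng/mL together with test peptide. Blank wells received no GDF-11 and no peptide. Plates were incubated 20 to 24 hours at 37°C with 5% CO2. Luminescence from One-Glo substrate was read to calculate percent inhibition.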
# [3] = HepG2, first GDF-11 column of Table 7-3/7-4, GDF-11 10 ng/mL, peptide at the lower of the 2 concentrations
# [4] = HepG2, second GDF-11 column of Table 7-3/7-4, GDF-11 10 ng/mL, peptide at the higher of the 2 concentrations
SMILES,inhibition at 0.1 µM [1],inhibition at 0.03 µM [1],"inhibition [2, 3]","inhibition [2, 4]"
CCCCCCC[C@@H]1NC(=O)[C@H](Cc2ccccc2)N(C)C(=O)[C@H](CCCNC(=N)N)NC(=O)[C@H](Cc2ccc(C(=O)O)cc2)NC(=O)[C@H](Cc2cccc(OCC(=O)O)c2)NC(=O)[C@H](C)N(C)C(=O)[C@H]([C@@H](C)CC)NC(=O)[C@H](Cc2ccccc2)N(C)C(=O)[C@H](Cc2ccc(O)cc2)NC(=O)[C@H](Cc2c[nH]c3ccccc23)NC(=O)[C@H](C)NC(=O)CN(CCCC(=O)O)C(=O)CSC[C@H](C(=O)N2CCC(CC(=O)O)CC2)NC(=O)[C@H](Cc2ccccc2)N(C)C(=O)[C@H](C)N(C)C1=O [Myostatin_99_v430] ({CH2CO}-[Gly(N(CH2)3COOH)]AWY[NMeF]I[NMeA][Phe(3-OCH2COOH)][Phe(4-COOH)]R[NMeF][X1][NMeA][NMeF][dC]-{Piperidinyl(4-CH2COOH)}; thioether N-15),100%,100%,0%,0%
CCCCCCC[C@@H]1NC(=O)[C@H](Cc2ccccc2)N(C)C(=O)[C@H](CCCNC(=N)N)NC(=O)[C@H](Cc2ccc(C(=O)O)cc2)NC(=O)[C@H](Cc2cccc(OCC(=O)O)c2)NC(=O)[C@H](C)N(C)C(=O)[C@H]([C@@H](C)CC)NC(=O)[C@H](Cc2ccccc2)N(C)C(=O)[C@H](Cc2ccc(O)cc2)NC(=O)[C@H](Cc2c[nH]c3ccccc23)NC(=O)[C@H](C)NC(=O)CN(CCCC(=O)O)C(=O)CSC[C@H](C(=O)N2CCC(CC(N)=O)CC2)NC(=O)[C@H](Cc2ccccc2)N(C)C(=O)[C@H](C)N(C)C1=O [Myostatin_99_v432] ({CH2CO}-[Gly(N(CH2)3COOH)]AWY[NMeF]I[NMeA][Phe(3-OCH2COOH)][Phe(4-COOH)]R[NMeF][X1][NMeA][NMeF][dC]-X9; thioether N-15),100%,100%,0%,0%
CCCCCCC[C@@H]1NC(=O)[C@H](Cc2ccccc2)N(C)C(=O)[C@H](CCCNC(=N)N)NC(=O)[C@H](Cc2ccc(C(=O)O)cc2)NC(=O)[C@H](Cc2cccc(OCC(=O)O)c2)NC(=O)[C@H](C)N(C)C(=O)[C@H]([C@@H](C)CC)NC(=O)[C@H](Cc2ccccc2)N(C)C(=O)[C@H](Cc2ccc(O)cc2)NC(=O)[C@H](Cc2c[nH]c3ccccc23)NC(=O)[C@H](C)NC(=O)CN(CCCC(=O)O)C(=O)CSC[C@H](C(=O)N2CCC(C(N)=O)CC2)NC(=O)[C@H](Cc2ccccc2)N(C)C(=O)[C@H](C)N(C)C1=O [Myostatin_99_v433] ({CH2CO}-[Gly(N(CH2)3COOH)]AWY[NMeF]I[NMeA][Phe(3-OCH2COOH)][Phe(4-COOH)]R[NMeF][X1][NMeA][NMeF][dC][Inp]-NH2; thioether N-15),100%,100%,0%,0%
CCCCCCC[C@@H]1NC(=O)[C@H](Cc2ccccc2)N(C)C(=O)[C@H](CCCNC(=N)N)NC(=O)[C@H](Cc2ccc(C(=O)O)cc2)NC(=O)[C@H](Cc2cccc(OCC(=O)O)c2)NC(=O)[C@H](C)N(C)C(=O)[C@H]([C@@H](C)CC)NC(=O)[C@H](Cc2ccccc2)N(C)C(=O)[C@H](Cc2ccc(O)cc2)NC(=O)[C@H](Cc2c[nH]c3ccccc23)NC(=O)[C@H](C)NC(=O)CN(CCCC(=O)O)C(=O)CCC[C@H](C(=O)O)NC(=O)[C@H](Cc2ccccc2)N(C)C(=O)[C@H](C)N(C)C1=O [Myostatin_99_v434] ([Gly(N(CH2)3COOH)]AWY[NMeF]I[NMeA][Phe(3-OCH2COOH)][Phe(4-COOH)]R[NMeF][X1][NMeA][NMeF][dAad]-OH; lactam N-15),100%,98%,0%,0%

# Other lines, results leading:
inhibition at 0.1 µM [1],inhibition at 0.03 µM [1],"inhibition [2, 3]","inhibition [2, 4]",SMILES
100%,100%,0%,0%,CCCCCCC[C@@H]1NC(=O)[C@H](Cc2ccccc2)N(C)C(=O)[C@H](CCCNC(=N)N)NC(=O)[C@H](Cc2ccc(C(=O)O)cc2)NC(=O)[C@H](Cc2cccc(OCC(=O)O)c2)NC(=O)[C@H](C)N(C)C(=O)[C@H]([C@@H](C)CC)NC(=O)[C@H](Cc2ccccc2)N(C)C(=O)[C@H](Cc2ccc(O)cc2)NC(=O)[C@H](Cc2c[nH]c3ccccc23)NC(=O)[C@H](C)NC(=O)CN(CCCC(=O)O)C(=O)CSC[C@H](C(=O)N2CCN(CC(=O)O)CC2)NC(=O)[C@H](Cc2ccccc2)N(C)C(=O)[C@H](C)N(C)C1=O [Myostatin_99_v429] ({CH2CO}-[Gly(N(CH2)3COOH)]AWY[NMeF]I[NMeA][Phe(3-OCH2COOH)][Phe(4-COOH)]R[NMeF][X1][NMeA][NMeF][dC]-{Piperazinyl(4-CH2COOH)}; thioether N-15)
100%,100%,0%,0%,CCCCCCC[C@@H]1NC(=O)[C@H](Cc2ccccc2)N(C)C(=O)[C@H](CCCNC(=N)N)NC(=O)[C@H](Cc2ccc(C(=O)O)cc2)NC(=O)[C@H](Cc2cccc(OCC(=O)O)c2)NC(=O)[C@H](C)N(C)C(=O)[C@H]([C@@H](C)CC)NC(=O)[C@H](Cc2ccccc2)N(C)C(=O)[C@H](Cc2ccc(O)cc2)NC(=O)[C@H](Cc2c[nH]c3ccccc23)NC(=O)[C@H](C)NC(=O)CN(CCCC(=O)O)C(=O)CSC[C@H](C(=O)N2CCC(CCC(N)=O)CC2)NC(=O)[C@H](Cc2ccccc2)N(C)C(=O)[C@H](C)N(C)C1=O [Myostatin_99_v431] ({CH2CO}-[Gly(N(CH2)3COOH)]AWY[NMeF]I[NMeA][Phe(3-OCH2COOH)][Phe(4-COOH)]R[NMeF][X1][NMeA][NMeF][dC]-{Piperidine(4-CH2CH2CONH2)}; thioether N-15)
100%,100%,2%,36%,CCCCCCC[C@@H]1NC(=O)[C@H](Cc2ccccc2)N(C)C(=O)[C@H](CCCNC(=N)N)NC(=O)[C@H](Cc2ccc(C(=O)O)cc2)NC(=O)[C@H](Cc2cccc(OCC(=O)O)c2)NC(=O)[C@H](C)N(C)C(=O)[C@H]([C@@H](C)CC)NC(=O)[C@H](Cc2ccccc2)N(C)C(=O)[C@H](Cc2ccc(O)cc2)NC(=O)[C@H](Cc2c[nH]c3ccccc23)NC(=O)[C@H](C)NC(=O)CN(CCCC(=O)O)C(=O)CSC[C@H](C(N)=O)N(C)C(=O)[C@H](Cc2ccccc2)N(C)C(=O)[C@H](C)N(C)C1=O [Myostatin_99_v439] ({CH2CO}-[Gly(N(CH2)3COOH)]AWY[NMeF]I[NMeA][Phe(3-OCH2COOH)][Phe(4-COOH)]R[NMeF][X1][NMeA][NMeF][dNMeC]-NH2; thioether N-15)
100%,99%,0%,9%,CCCCCCC[C@@H]1NC(=O)[C@H](Cc2ccccc2)N(C)C(=O)[C@H](CCCNC(=N)N)NC(=O)[C@H](Cc2ccc(C(=O)O)cc2)NC(=O)[C@H](Cc2cccc(OCC(=O)O)c2)NC(=O)[C@H](C)N(C)C(=O)[C@H]([C@@H](C)CC)NC(=O)[C@H](Cc2ccccc2)N(C)C(=O)[C@H](Cc2ccc(O)cc2)NC(=O)[C@H](Cc2c[nH]c3ccccc23)NC(=O)[C@H](C)NC(=O)CN(CCCC(=O)O)C(=O)CSC[C@@H](C(N)=O)N(C)C(=O)[C@H](Cc2ccccc2)N(C)C(=O)[C@H](C)N(C)C1=O [Myostatin_99_v440] ({CH2CO}-[Gly(N(CH2)3COOH)]AWY[NMeF]I[NMeA][Phe(3-OCH2COOH)][Phe(4-COOH)]R[NMeF][X1][NMeA][NMeF][NMeC]-NH2; thioether N-15)
